Measurements taken from patent publication US20080161366A1, “AMINOALKYL SUBSTITUTED ARYL SULFAMIDE DERIVATIVES AND METHODS OF THEIR USE” (Wyeth, priority 2006, published 2008).
Counter-ions that a name gives are not always drawn.

Molecular target: human norepinephrine transporter (hNET) (Homo sapiens, UniProt P23975)
Experiment: hNET uptake, Protocol B: cell based norepinephrine reuptake assay using recombinant hNET (MDCK-Net6 cells)
Conditions: MDCK-Net6, read-out: NE uptake (Protocol B) % inhibition @ 6 uM

human norepinephrine transporter (hNET), sequence (P23975 whole entry): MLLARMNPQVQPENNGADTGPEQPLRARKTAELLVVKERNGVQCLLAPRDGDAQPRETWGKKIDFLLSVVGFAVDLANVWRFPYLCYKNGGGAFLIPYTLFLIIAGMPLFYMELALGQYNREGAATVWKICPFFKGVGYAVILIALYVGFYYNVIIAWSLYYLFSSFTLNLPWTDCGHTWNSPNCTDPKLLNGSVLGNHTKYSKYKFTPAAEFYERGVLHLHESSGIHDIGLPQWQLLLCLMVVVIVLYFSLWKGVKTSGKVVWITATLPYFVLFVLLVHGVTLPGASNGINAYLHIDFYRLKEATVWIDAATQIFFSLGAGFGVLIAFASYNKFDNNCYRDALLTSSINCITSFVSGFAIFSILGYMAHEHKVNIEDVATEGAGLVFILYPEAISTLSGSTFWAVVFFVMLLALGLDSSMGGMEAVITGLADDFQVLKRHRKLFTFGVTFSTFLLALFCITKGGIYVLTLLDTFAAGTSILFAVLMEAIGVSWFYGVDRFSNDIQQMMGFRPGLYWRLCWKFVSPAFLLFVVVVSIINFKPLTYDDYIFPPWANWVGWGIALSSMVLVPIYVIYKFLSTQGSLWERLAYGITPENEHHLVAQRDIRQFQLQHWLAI

| inhibition at 6 µM | Compound |
| --- | --- |
| 57% | CN(C)CCCCN1c2ccccc2N(c2ccc(F)cc2Cl)S1(=O)=O [Example 88, 4-[3-(2-chloro-4-fluorophenyl)-2,2-dioxido-2,1,3-benzothiadiazol-1(3H)-yl]-N,N-dimethylbutan-1-amine hydrochloride] |

Same assay, conditions: NE uptake (Protocol B) IC50 (nM), MDCK-Net6 cells, 3H-NE 16 nM

| Compound | IC50 |
| --- | --- |
| CNCCCN1c2cc(C)ccc2N(c2ccccc2)S1(=O)=O [Example 40, N-methyl-3-(6-methyl-2,2-dioxido-3-phenyl-2,1,3-benzothiadiazol-1(3H)-yl)propan-1-amine] | 252 nM |
| CCNCCCN1c2ccccc2N(c2c(F)cccc2F)S1(=O)=O [Example 126, 3-[3-(2,6-difluorophenyl)-2,2-dioxido-2,1,3-benzothiadiazol-1(3H)-yl]-N-ethylpropan-1-amine hydrochloride] | 15 nM |
| CNCCCN1c2ccc(-c3ccccc3)cc2N(c2ccccc2F)S1(=O)=O [Example 71, 3-[3-(2-fluorophenyl)-2,2-dioxido-5-phenyl-2,1,3-benzothiadiazol-1(3H)-yl]-N-methylpropan-1-amine hydrochloride] | 206 nM |
| CNCCCN1c2ccccc2N(c2cc(C)ccn2)S1(=O)=O [Example 30, N-methyl-3-[3-(4-methylpyridin-2-yl)-2,2-dioxido-2,1,3-benzothiadiazol-1(3H)-yl]propan-1-amine hydrochloride] | 15.3 nM |
| O=S1(=O)N(CCNC2CCNCC2)c2ccccc2N1c1ccccc1F [Example 133, N-{3-[3-(2-fluorophenyl)-2,2-dioxido-2,1,3-benzothiadiazol-1(3H)-yl]ethyl}piperidin-4-amine dihydrochloride] | 45 nM |
| CNCCCN1c2ccccc2N(c2cccc(Br)c2)S1(=O)=O [Example 53, 3-[3-(3-bromophenyl)-2,2-dioxido-2,1,3-benzothiadiazol-1(3H)-yl]-N-methylpropan-1-amine hydrochloride] | 24.5 nM |
| O=S1(=O)N(CCCCNC2CCC2)c2ccccc2N1c1c(F)cccc1F [Example 124, N-{4-[3-(2,6-difluorophenyl)-2,2-dioxido-2,1,3-benzothiadiazol-1(3H)-yl]butyl}cyclobutanamine hydrochloride] | 132 nM |
| O=S1(=O)N(CCCNC2CC2)c2ccccc2N1c1ccccc1F [Example 97, N-{3-[3-(2-fluorophenyl)-2,2-dioxido-2,1,3-benzothiadiazol-1(3H)-yl]propyl}cyclopropanamine] | 21 nM |
| CNCCCN1c2ccccc2N(c2ccccn2)S1(=O)=O [Example 31, 3-(2,2-dioxido-3-pyridin-2-yl-2,1,3-benzothiadiazol-1(3H)-yl)-N-methylpropan-1-amine hydrochloride] | 23.6 nM |
| CNCCCN1c2c(F)cccc2N(c2ccccc2)S1(=O)=O [Example 39, 3-(7-fluoro-2,2-dioxido-3-phenyl-2,1,3-benzothiadiazol-1(3H)-yl)-N-methylpropan-1-amine] | 29.3 nM |
| CCNCCCN1c2ccccc2N(c2ccccc2F)S1(=O)=O [Example 57, N-ethyl-3-[3-(2-fluorophenyl)-2,2-dioxido-2,1,3-benzothiadiazol-1(3H)-yl]propan-1-amine] | 2.56 nM |
| O=S1(=O)N(CCCNC2CCC2)c2ccccc2N1c1c(F)cccc1F [Example 128, N-{3-[3-(2,6-difluorophenyl)-2,2-dioxido-2,1,3-benzothiadiazol-1(3H)-yl]propyl}cyclobutanamine hydrochloride] | 222 nM |
| CNCCCN1c2ccccc2N(c2ccc(OC)cc2)S1(=O)=O [Example 7, 3-[3-(4-methoxyphenyl)-2,2-dioxido-2,1,3-benzothiadiazol-1(3H)-yl]-N-methylpropan-1-amine] | 1780 nM |
| CNCCCN1c2ccccc2N(c2cccc(C)n2)S1(=O)=O [Example 32, N-methyl-3-[3-(6-methylpyridin-2-yl)-2,2-dioxido-2,1,3-benzothiadiazol-1(3H)-yl]propan-1-amine hydrochloride] | 192 nM |
| CNCCCN1c2ccc(Cl)cc2N(c2ccccc2)S1(=O)=O [Example 36, 3-(5-Chloro-2,2-dioxido-3-phenyl-2,1,3-benzothiadiazol-1(3H)-yl)-N-methylpropan-1-amine] | 11.3 nM |
| CNCCCN1c2ccccc2N(c2ccc(OC)nc2)S1(=O)=O [Example 28, 3-[3-(6-methoxypyridin-3-yl)-2,2-dioxido-2,1,3-benzothiadiazol-1(3H)-yl]-N-methylpropan-1-amine hydrochloride] | 1900 nM |
| CCNCCCN1c2ccccc2N(c2ccc(F)c(F)c2F)S1(=O)=O [Example 112, 3-[2,2-dioxido-3-(2,3,4-trifluorophenyl)-2,1,3-benzothiadiazol-1(3H)-yl]-N-ethylpropan-1-amine] | 2770 nM |
| O=S1(=O)N(CCCNC2CCNCC2)c2ccccc2N1c1ccccc1 [Example 132, N-[3-(2,2-dioxido-3-phenyl-2,1,3-benzothiadiazol-1(3H)-yl)propyl]piperidin-4-amine dihydrochloride] | 267 nM |
| NCCCN1c2ccccc2N(c2c(F)cccc2F)S1(=O)=O [Example 69, 3-[3-(2,6-Difluorophenyl)-2,2-dioxido-2,1,3-benzothiadiazol-1(3H)-yl]propan-1-amine hydrochloride] | 10.4 nM |
| O=S1(=O)N(CCCNC2CCCCC2)c2ccccc2N1c1c(F)cccc1F [Example 130, N-{3-[3-(2,6-difluorophenyl)-2,2-dioxido-2,1,3-benzothiadiazol-1(3H)-yl]propyl}cyclohexanamine hydrochloride] | 224 nM |
| CNCCCN1c2cc(C#N)ccc2N(c2ccccc2)S1(=O)=O [Example 43, 3-[3-(methylamino)propyl]-1-phenyl-1,3-dihydro-2,1,3-benzothiadiazole-5-carbonitrile 2,2-dioxide] | 1320 nM |
| NCCCN1c2ccccc2N(c2c(F)cc(F)cc2F)S1(=O)=O [Example 70, 3-[2,2-Dioxido-3-(2,4,6-trifluorophenyl)-2,1,3-benzothiadiazol-1(3H)-yl]propan-1-amine hydrochloride] | 277 nM |
| CNCCCN1c2ccccc2N(c2ccc(C)cc2)S1(=O)=O [Example 8, N-methyl-3-[3-(4-methylphenyl)-2,2-dioxido-2,1,3-benzothiadiazol-1(3H)-yl]propan-1-amine] | 35.7 nM |

Results, then the compound that gave them:

| IC50 | Compound |
| --- | --- |
| 40.2 nM | CNCCCN1c2ccccc2N(c2ccc(F)cc2Cl)S1(=O)=O [Example 60, 3-[3-(2-Chloro-4-fluorophenyl)-2,2-dioxido-2,1,3-benzothiadiazol-1(3H)-yl]-N-methylpropan-1-amine hydrochloride] |
| 2.74 nM | CNCCCN1c2ccccc2N(c2ccccc2Cl)S1(=O)=O [Example 52, 3-[3-(2-chlorophenyl)-2,2-dioxido-2,1,3-benzothiadiazol-1(3H)-yl]-N-methylpropan-1-amine hydrochloride] |
| 19 nM | CNCCCCN1c2ccccc2N(c2c(F)cc(F)cc2F)S1(=O)=O [Example 81, 4-[2,2-Dioxido-3-(2,4,6-trifluorophenyl)-2,1,3-benzothiadiazol-1(3H)-yl]-N-methylbutan-1-amine hydrochloride] |
| 2110 nM | CNCCCCCN1c2ccccc2N(c2ccc(F)cc2Cl)S1(=O)=O [Example 89, 5-[3-(2-chloro-4-fluorophenyl)-2,2-dioxido-2,1,3-benzothiadiazol-1(3H)-yl]-N-methylpentan-1-amine hydrochloride] |
| 50.9 nM | CNCCCN1c2ccccc2N(c2ccc(F)cc2C)S1(=O)=O [Example 62, 3-[3-(4-fluoro-2-methylphenyl)-2,2-dioxido-2,1,3-benzothiadiazol-1(3H)-yl]-N-methylpropan-1-amine] |
| 1160 nM | CNCCCCCCN1c2ccccc2N(c2ccccc2F)S1(=O)=O [Example 101, 6-[3-(2-fluorophenyl)-2,2-dioxido-2,1,3-benzothiadiazol-1(3H)-yl]-N-methylhexan-1-amine] |
| 2 nM | CNCCCCN1c2ccccc2N(c2c(F)cccc2F)S1(=O)=O [Example 83, 4-[3-(2,6-Difluorophenyl)-2,2-dioxido-2,1,3-benzothiadiazol-1(3H)-yl]-N-methylbutan-1-amine hydrochloride] |
| 2.78 nM | CNCCCN1c2ccccc2N(c2cc(F)ccc2F)S1(=O)=O [Example 48, 3-[3-(2,5-difluorophenyl)-2,2-dioxido-2,1,3-benzothiadiazol-1(3H)-yl]-N-methylpropan-1-amine hydrochloride] |
| 39 nM | CNCCCCN1c2ccccc2N(c2ccc(F)c(F)c2)S1(=O)=O [Example 110, 4-[3-(3,4-difluorophenyl)-2,2-dioxido-2,1,3-benzothiadiazol-1(3H)-yl]-N-methylbutan-1-amine] |
| 77 nM | CCNCCCN1c2ccccc2N(c2ccc(F)cc2F)S1(=O)=O [Example 119, 3-[3-(2,4-difluorophenyl)-2,2-dioxido-2,1,3-benzothiadiazol-1(3H)-yl]-N-ethylpropan-1-amine hydrochloride] |
| 14.2 nM | CNCCCCCN1c2ccccc2N(c2ccccc2F)S1(=O)=O [Example 66, 5-[3-(2-fluorophenyl)-2,2-dioxido-2,1,3-benzothiadiazol-1(3H)-yl]-N-methylpentan-1-amine] |
| 259 nM | NCCCN1c2ccccc2N(c2ccc(F)cc2F)S1(=O)=O [Example 72, 3-[3-(2,4-difluorophenyl)-2,2-dioxido-2,1,3-benzothiadiazol-1(3H)-yl]propan-1-amine hydrochloride] |
| 1500 nM | CCNCCCCN1c2ccccc2N(c2ccc(F)cc2F)S1(=O)=O [Example 121, 4-[3-(2,4-difluorophenyl)-2,2-dioxido-2,1,3-benzothiadiazol-1(3H)-yl]-N-ethylbutan-1-amine hydrochloride] |
| 0.3 nM | CNCCCCN1c2ccccc2N(c2ccccc2)S1(=O)=O [Example 18, 4-(2,2-dioxido-3-phenyl-2,1,3-benzothiadiazol-1(3H)-yl)-N-methylbutan-1-amine] |
| 7190 nM | CN(C)CCCCCN1c2ccccc2N(c2ccc(F)cc2F)S1(=O)=O [Example 117, 5-[3-(2,4-difluorophenyl)-2,2-dioxido-2,1,3-benzothiadiazol-1(3H)-yl]-N,N-dimethylpentan-1-amine hydrochloride] |
